Measurements from patent publication US12318393B2, “Modulators of orphan nuclear receptors for NASH and other metabolic disorders” (Emory University, priority 2018, dated 2025).

Tests used:
[1] = Cellular toxicity assay in CEM cells; type: cell-based; conditions: human, CEM (human lymphoblastoid) cells, read-out: Cytotoxicity (IC50, μM) CEM
Protocol: The toxicity of the compounds was assessed in human PBM, CEM (human lymphoblastoid), and Huh-7 cells, as described previously (see Schinazi R. F., Sommadossi J.-P., Saalmann V., Cannon D. L., Xie M.-Y., Hart G. C., Smith G. A. & Hahn E. F. Antimicrob. Agents Chemother. 1990, 34, 1061-67). Cycloheximide was included as positive cytotoxic control, and untreated cells exposed to solvent were included as negative controls. The cytotoxicity IC50 was obtained from the concentration-response curve using the median effective method described previously (see Chou T.-C. & Talalay P. Adv. Enzyme Regul. 1984, 22, 27-55; Belen'kii M. S. & Schinazi R. F. Antiviral Res. 1994, 25, 1-11).

Sgp130FC mice = experiment: Liver triglycerides and lipid accumulation in Sgp130FC mice (NASH model); type: in vivo
Protocol: Sgp130FC mice specifically blocks IL-6 trans-signaling without affecting classic IL-6 signaling. […] Nine-month-old Sgp130FC mice were injected i.p. with Compound 1 (7.5 mg/kg) or vehicle control twice a week for four weeks (total of 8 injections). The mice were sacrificed after 4 weeks, triglyceride levels were measured from liver and skeletal muscle and hepatic lipid accumulation was visualized using H&E staining.
Compound 1 and AntagomiR injections to mice. C57BL/6 male mice, 7-8 weeks old, or Sgp130FC, 9-month-old male mice, were injected i.p. with 7.5 mg/kg Compound 1 dissolved in saline and 3% DMSO. Saline was injected as control. Mice were hydrodynamic tail vain injected with antagomiR-122 or antagomiR-control (negative control) (5 μg/mouse in 1.5 ml saline). Mice were sacrificed according to the legend of the figure describing the experimental results and the livers, white adipose and skeletal muscle tissues were frozen in liquid nitrogen or in OCT embedded frozen blocks, for further RNA and histologic analysis. AntagomiRs were obtained from Sigma Aldrich, see Table 3.
Triglycerides and β-hydroxybutyrate quantification. To determine the liver and muscle lipid content, muscle and liver tissues (40-80 mg) were homogenized in 0.5 ml of chloroform: Tris solution (v/v, 1:1), the homogenate was transferred to 1 ml of chloroform: methanol solution (v/v, 2:1) centrifuged at 3000 rpm for 10 min. The organic phase was mixed with 5% Triton X100 in chloroform, dried and re-dissolved in water. After lipid extraction, TG concentration in samples was measured with Triglyceride Quantification Kit (BioVision), according to the manufactures instructions. β-hydroxybutyrate was determined utilizing commercial colorimetric kits (BioVision) directly from plasma samples.

miR-122 and Gpase6 = experiment: Modulation of RORα-regulated genes in healthy C57BL/6 mice; type: in vivo; conditions: 7.5 mg/kg i.p. once
Protocol: Healthy C57BL/6 mice were injected i.p. once with 7.5 mg/kg Compound 1 or saline control. Mice were sacrificed at 1, 2, and 7 day time points post-injection. miR-122 and Gpase 6 mRNA levels were determined by qRT-PCR for each time point. MicroRNA levels were normalized to RNU6; plasma miR-122 was normalized to spiked in C. elegans miR-39; and mRNA levels were normalized to HPRT.
RNA extraction and quantitative Real-Time PCR analysis. Total RNA, including small RNAs, were isolated from 200 μL of plasma or culture media samples using the miRNeasy Mini kit (Qiagen, Valencia, CA, USA) with 2 minor modifications. First, 200 μl of plasma or culture media were lysed with 1 ml of Qiazol solution. Second, a 50 pmol/l of synthesized single strand Caenorhabditis elegans miRNA (cel-miR-39) was added as the spike-in control to monitor extraction efficiency. The remainder of the RNA extraction was performed according to the manufacturer's instructions. miRNAs were eluted with 30 μl of RNase-free water. Total RNA, including miRNAs, from cells or tissues were isolated using TRIzol reagent (Invitrogen, Carlsbad, CA, USA). cDNA was synthesized using the Quanta Biosciences qScript™ cDNA Synthesis Kit (95047-100) for mRNA analysis, and using the qScript™ microRNA cDNA Synthesis Kit (95107-100) for miRNAs analysis. qRT-PCR of miRNAs and mRNA was performed using the ABI 7900 HT Real-Time PCR System and a SYBR Green PCR Kit: Quanta Cat. #84018 and #84071 respectively. The fold expression and statistical significance were calculated using the 2-ΔΔ Ct method. All experiments were performed in triplicates.

[2] = test system: C57BL/6 mice fed with HFD; experiment: Insulin tolerance test in HFD-fed C57BL/6 mice; type: in vivo; conditions: 15 mg/kg 3 times a week for 3 weeks
Protocol: At 4 months of age, an insulin tolerance test was performed on fasted C57BL/6 male mice following HFD feeding for 9 weeks following Compound 1 or saline with DMSO injections. Mice received an i.p. injection of human insulin (Actrapid) at a dosage of 0.88 units/kg followed by glucose checks every 20 minutes. […] Glucose measurements were assessed on blood from the tail following a tail snip at indicated time-points using a blood glucometer (Accu-Chek) and test strips (Accu-Chek).
Experimental design: C57BL/6 mice fed for 6 weeks with HFD were injected with 15 mg/kg Compound 1 (or saline+DMSO) 3 times a week for 3 weeks (n=6). Whole-blood glucose levels during an insulin tolerance test (ITT) in HFD fed Compound 1-treated mice vs. HFD-fed saline-treated mice and normal-diet fed mice (control ND); minutes indicate time after insulin injection. N.s.=not significant.

[3] = 7.5 mg/kg i.p. twice/week, four weeks

O=C1Nc2cc(C(=O)N3CCC(Cc4ccccc4)CC3)ccc2Nc2ccccc21 [Compound 1]
IC50 [1]: 11 µM
hepatic lipid accumulation and droplet formation (H&E staining) (Sgp130FC mice; 7.5 mg/kg i.p. twice a week for four weeks): markedly reduces
reduction of liver triglyceride levels (Sgp130FC mice; 7.5 mg/kg i.p. twice a week for four weeks, vs saline): approximately 3 fold
MicroRNA-18 plasma and liver levels (negative control) (Sgp130FC mice; [3]): not affected
liver and muscle triglyceride levels (Sgp130FC mice; [3]): reduces
miR-122 expression (plasma, liver) (Sgp130FC mice; [3]): increases
miR-18 and miR-126 levels (controls) (miR-122 and Gpase6; over 7 days): not affected
Gpase6 mRNA (RORα-regulated gene) (miR-122 and Gpase6; up to 7 days post-injection): significantly up-regulated
miR-122 levels in plasma and liver (miR-122 and Gpase6; up to 7 days post-injection): increased
insulin sensitivity compared to the untreated cohort [2]: improves
blood glucose in insulin tolerance test after 100 minutes ([2]; 100 minutes after insulin): 70%
blood glucose, initial decrease in insulin tolerance test ([2]; after 45 minutes post-injection of insulin): approximately 55%
